Measured values taken from patent US7429482B2, “Screening tools for discovery of novel anabolic agents” (United States of America as represented by the Department …, priority 2005, dated 2008).

Experiments:
[1] = system: GADD45; experiment: Chronic denervation: GADD45 mRNA in gastrocnemius (qPCR); format: in vivo, rat
Experimental: (§1) Male Wistar rats weighing 200-250 gm (Taconic Farms, Germantown, N.Y.) were provided food and water ad libitum and were housed in a temperature and humidity controlled environment providing a 12:12 hour day-night cycle. For surgical procedures, animals were anesthetized with ketamine/xylazine. The left sciatic nerve was exposed by blunt dissection, and a 1 to 2 mm piece of this nerve was excised just below the level of the femoral head. A sham surgery was performed on the right hind limb in which the sciatic nerve was exposed but was not transected. Twenty eight days later, animals were anesthetized, and Alzet pumps were implanted subcutaneously on the back. […] Testosterone levels after replacement were approximately 15 nM, a high-normal range for rats of this age. Animals were sacrificed 3, 7 or 28 days after implantation of the miniosmotic pumps by inhalation of carbon dioxide. Gastrocnemius muscles were excised and weighed, then flash frozen on dry ice and stored at −80° C.
Total RNA was extracted from skeletal muscle (20 mg) by homogenization in guanidine thiocyanate using a Polytron followed by extraction of total RNA with phenol-chloroform as described by (Chomczynski and Sacchi, Anal Biochem 162: 156-159, 1987). Total RNA was further enriched using RNAeasy minicolumns (Qiagen, Valencia, Calif.). This procedure included digestion of contaminating DNA on the column with RNAse-free DNAse (Qiagen). Total RNA was eluted and quantified by absorbance at 260 nm. One μg of total RNA was used to prepare a cDNA library by reverse transcription (High Capacity cDNA Archive Kit, Applied Biosystems). Libraries were diluted 25-fold with water. Real time PCR was performed Taqman 2×PCR buffer (Applied Biosystems) using an Applied Biosystems 7500 thermocycler. Levels of gene expression in the denervated muscle were expressed as fold induction relative to muscle from the sham-denervated leg of animals administered vehicle. […] Fold-induction was determined using the 2^−ΔΔCt method, using expression of 18S RNA as the normalization control. […]

[2] = system: IGF-1; experiment: Chronic denervation: IGF-1 mRNA in gastrocnemius (qPCR); format: in vivo, rat
Experimental: as §1, with “Animals were sacrificed 3, 7 or 28 days after implantation of the miniosmotic pumps by inhalation of carbon dioxide. Gastrocnemius muscles were excised and weighed, then flash frozen on dry ice and stored at −80° C.” left out
(§2) Total RNA was extracted from skeletal muscle (20 mg) by homogenization in guanidine thiocyanate using a Polytron followed by extraction of total RNA with phenol-chloroform as described by (Chomczynski and Sacchi, Anal Biochem 162: 156-159, 1987). […] Total RNA was eluted and quantified by absorbance at 260 nm. […] Levels of gene expression in the denervated muscle were expressed as fold induction relative to muscle from the sham-denervated leg of animals administered vehicle. […] Fold-induction was determined using the 2^−ΔΔCt method, using expression of 18S RNA as the normalization control. […]

[3] = system: IGF-1; experiment: Acute denervation: IGF-1 mRNA in EDL and soleus (qPCR); format: in vivo, rat; settings: nandrolone 1.5 mg/kg/wk 14 days
Experimental: Male Wistar rats weighing 250 gm (Taconic Farms, Germantown, N.Y.) were provided food and water ad libitum and were housed in a temperature and humidity controlled environment providing a 12:12 hour day-night cycle. For surgical procedures, animals were anesthetized with ketamine/xylazine. The left sciatic nerve was exposed by blunt dissection, and a 1 to 2 mm piece of this nerve was excised just below the level of the femoral head. A sham surgery was performed on the right hind limb in which the sciatic nerve was exposed but was not transected. Model 2002 Alzet pumps were implanted subcutaneously on the back. […] A pellet containing 15 mg of testosterone (Innovative Research of America, Sarasota, Fla.) administered as a continuous infusion (5 mg/wk), or a pellet containing placebo, was inserted into a subcutaneous pouch. […] Because testosterone is known to have anabolic actions (Ferrando et al., Am J Physiol Endocrinol Metab 282: E601-E607, 2002; Mauras et al., J Clin Endocrinol Metab 83: 1886-1892, 1998; Urban et al., Am J Physiol 269: E820-E826, 1995), reductions in levels of this hormone could affect muscle mass and confound interpretation of the results. Animals were euthanized 14 days later by inhalation of carbon dioxide. […]
Total RNA was extracted from skeletal muscle (20 mg) by homogenization in guanidine thiocyanate using a Polytron followed by extraction using phenol-chloroform (Chomczynski and Sacchi, Anal Biochem 162: 156-159, 1987). […] Total RNA was then eluted and quantified by absorbance at 260 nm. […] Levels of gene expression in the denervated muscle were expressed as fold induction relative to muscle from the sham-denervated leg of animals administered vehicle. […] Fold-induction was determined using the 2^−ΔΔCt method, using expression of 18S RNA as the normalization control. […]

[4] = system: IGFBP-2; experiment: Chronic denervation: IGFBP-2 mRNA in gastrocnemius (qPCR); format: in vivo, rat
Experimental: as §1, with “Animals were sacrificed 3, 7 or 28 days after implantation of the miniosmotic pumps by inhalation of carbon dioxide. Gastrocnemius muscles were excised and weighed, then flash frozen on dry ice and stored at −80° C.” left out
as §2

[5] = Testosterone levels after replacement in rats; format: in vivo; settings: rat, testosterone 0.7 mg/day continuous infusion
Experimental: as §1

Structure (SMILES) | GADD45 expression ([1]; denervated muscle, after 3 and 7-days, not significant) | effect on GADD45 expression ([1]; denervated muscle, after 28-days infusion) | GADD45 expression ([1]; sham-denervated muscle) | IGF-1 expression ([2]; denervated muscle) | IGF-1 expression ([2]; sham-denervated muscle) | IGF-1 expression ([3]; denervated EDL) | IGF-1 expression ([3]; denervated or sham-denervated soleus) | IGF-1 expression ([3]; sham-denervated EDL) | IGFBP-2 expression ([4]; denervated muscle, any time tested) | IGFBP-2 expression ([4]; sham-denervated muscle) | testosterone levels after replacement [5]
C[C@]12CC[C@H]3[C@@H](CCC4=CC(=O)CC[C@@H]43)[C@@H]1CC[C@@H]2O [nandrolone] | tended to reduce | lost | no appreciable effect | did not alter | did not alter | significantly reduced | did not significantly affect | significantly reduced | did not significantly alter | did not appreciably alter | –
C[C@]12CC[C@H]3[C@@H](CCC4=CC(=O)CC[C@@]43C)[C@@H]1CC[C@@H]2O [testosterone] | – | – | – | – | – | – | – | – | – | – | approximately 15 nM
